Experimental data: the NIST ThermoML archive (doi:10.1016/j.jct.2013.12.022)
± gives the expanded uncertainty stated by the source.

Columns and labels:
[1] = 100 kPa, Liquid; for viscosity: Cone and plate viscometry; for mass density: Vibrating tube method
[2] = wn = mass fraction of the nth substance listed; settings: 100 kPa, Liquid, w1 = 0.8465; for viscosity: Cone and plate viscometry; for mass density: Vibrating tube method

| Structure (SMILES) | viscosity ([1]; 288.15 K) | mass density ([1]; 288.15 K) | viscosity ([1]; 293.15 K) | mass density ([1]; 293.15 K) | viscosity ([1]; 298.15 K) | mass density ([1]; 298.15 K) | viscosity ([1]; 303.15 K) | mass density ([1]; 303.15 K) | viscosity ([1]; 308.15 K) | mass density ([1]; 308.15 K) | viscosity ([1]; 313.15 K) | mass density ([1]; 313.15 K) | viscosity ([1]; 318.15 K) | mass density ([1]; 318.15 K) | viscosity ([1]; 323.15 K) | mass density ([1]; 323.15 K) | viscosity ([1]; 328.15 K) | mass density ([1]; 328.15 K) | viscosity ([1]; 333.15 K) | mass density ([1]; 333.15 K) | other results |
| --- | --- | --- | --- | --- | --- | --- | --- | --- | --- | --- | --- | --- | --- | --- | --- | --- | --- | --- | --- | --- | --- |
| CC(CC(C)(C)C)CP(=O)([O-])CC(C)CC(C)(C)C.CCCCCCCCCCCCCC[P+](CCCCCC)(CCCCCC)CCCCCC | 1953 ± 180 mPa·s | 890.86 ± 4.3 kg/m3 | 1446.3 ± 130 mPa·s | 887.72 ± 4.3 kg/m3 | 1058.2 ± 91 mPa·s | 884.55 ± 4.3 kg/m3 | 782.72 ± 65 mPa·s | 881.54 ± 4.2 kg/m3 | 587.62 ± 47 mPa·s | 878.58 ± 4.2 kg/m3 | 447.95 ± 34 mPa·s | 875.62 ± 4.2 kg/m3 | 346.95 ± 26 mPa·s | 872.67 ± 4.2 kg/m3 | 272.37 ± 20 mPa·s | 869.72 ± 4.1 kg/m3 | 217.4 ± 15 mPa·s | 866.77 ± 4.1 kg/m3 | 175.07 ± 12 mPa·s | 863.87 ± 4.1 kg/m3 | mass density ([1]; 338.15 K): 860.99 ± 4.1 kg/m3; mass density ([1]; 343.15 K): 858.1 ± 4 kg/m3; mass density ([1]; 348.15 K): 855.22 ± 4 kg/m3; viscosity ([1]; 353.15 K): 80.99 ± 5.3 mPa·s; mass density ([1]; 353.15 K): 852.33 ± 4 kg/m3; mass density ([1]; 358.15 K): 849.44 ± 4 kg/m3; mass density ([1]; 363.15 K): 846.56 ± 3.9 kg/m3; viscosity ([1]; 373.15 K): 42.79 ± 2.8 mPa·s; viscosity ([1]; 393.15 K): 24.53 ± 1.6 mPa·s; viscosity ([1]; 413.15 K): 15.44 ± 1 mPa·s; viscosity ([1]; 433.15 K): 10.17 ± 0.66 mPa·s |
| CC(CC(C)(C)C)CP(=O)([O-])CC(C)CC(C)(C)C.CCCCCCCCCCCCCC[P+](CCCCCC)(CCCCCC)CCCCCC + O |  |  |  |  |  |  |  |  |  |  |  |  |  |  |  |  |  |  |  |  | viscosity ([2]; 288.15 K): 286.96 ± 21 mPa·s; mass density ([2]; 288.15 K): 921.09 ± 3.5 kg/m3; viscosity ([2]; 293.15 K): 211.13 ± 15 mPa·s; mass density ([2]; 293.15 K): 917.76 ± 3.5 kg/m3; viscosity ([2]; 298.15 K): 156.74 ± 11 mPa·s; mass density ([2]; 298.15 K): 914.4 ± 3.5 kg/m3; viscosity ([2]; 303.15 K): 119.54 ± 7.9 mPa·s; mass density ([2]; 303.15 K): 911.03 ± 3.5 kg/m3; viscosity ([2]; 308.15 K): 93.22 ± 6.1 mPa·s; mass density ([2]; 308.15 K): 907.66 ± 3.4 kg/m3; viscosity ([2]; 313.15 K): 74.08 ± 4.8 mPa·s; mass density ([2]; 313.15 K): 904.29 ± 3.4 kg/m3; viscosity ([2]; 318.15 K): 60.01 ± 3.8 mPa·s; mass density ([2]; 318.15 K): 900.95 ± 3.4 kg/m3; viscosity ([2]; 323.15 K): 49.03 ± 3.1 mPa·s; mass density ([2]; 323.15 K): 897.66 ± 3.4 kg/m3; viscosity ([2]; 328.15 K): 40.7 ± 2.6 mPa·s; mass density ([2]; 328.15 K): 894.18 ± 3.3 kg/m3; viscosity ([2]; 333.15 K): 34.16 ± 2.2 mPa·s; mass density ([2]; 333.15 K): 890.61 ± 3.3 kg/m3 |
| CCCCCCCCCCCC [dodecane] | 1.58 ± 0.1 mPa·s | 753.43 ± 0.59 kg/m3 | 1.47 ± 0.09 mPa·s | 749.81 ± 0.58 kg/m3 | 1.35 ± 0.08 mPa·s | 746.18 ± 0.58 kg/m3 | 1.24 ± 0.08 mPa·s | 742.55 ± 0.58 kg/m3 | 1.14 ± 0.07 mPa·s | 738.91 ± 0.57 kg/m3 | 1.06 ± 0.07 mPa·s | 735.26 ± 0.57 kg/m3 | 0.99 ± 0.06 mPa·s | 731.61 ± 0.57 kg/m3 | 0.93 ± 0.06 mPa·s | 727.95 ± 0.57 kg/m3 | 0.87 ± 0.05 mPa·s | 724.29 ± 0.56 kg/m3 | 0.82 ± 0.05 mPa·s | 720.61 ± 0.56 kg/m3 |  |
